Some test systems named below: 786-0 renal; ACHN renal; HL-60(TB) leukemia; M14 melanoma; NCI-H522 lung; OVCAR-3 ovarian; OVCAR-5 ovarian; SF-539 CNS; T-47D breast; U251 CNS.
Test in all cases: DTP human tumour cell line panel, 48 h

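Results reflect a 48-hour exposure of cells in 96-well plates to compound at five concentrations. GI50 = concentration required for 50% inhibition of growth. TGI marks complete inhibition of growth.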

As usually defined, the TGI is the concentration at which net growth stops. Read a high TGI as less potent growth arrest. As to `O=[N+]([O-])C1(CO)COC2(OC1)c1ccccc1-c1ccccc12`, the total growth inhibition concentration (TGI) in the assay with 786-0 renal was > 74.8 µM; in the assay on ACHN renal it was > 100 µM; with HL-60(TB) leukemia, 58.5 µM; in the assay on M14 melanoma, > 88.4 µM; in the assay with NCI-H522 lung it was 41 µM; in the assay on OVCAR-3 ovarian, > 100 µM. Also, the TGI with OVCAR-5 ovarian is > 100 µM; in the assay with SF-539 CNS, > 85.6 µM; in the assay with T-47D breast it was 77.2 µM; in the assay on U251 CNS, > 100 µM.
As usually defined, the GI50 is the concentration giving 50% growth inhibition. With `Nc1cc2ccncc2c2ccccc12`, the GI50 in the assay on 786-0 renal is 23.3 µM; with ACHN renal it was 4.44 µM; with HL-60(TB) leukemia it was 20 µM; in the assay on M14 melanoma, 14.5 µM; in the assay on NCI-H522 lung it was 5.49 µM; with OVCAR-3 ovarian it was 18.8 µM. Also, the GI50 with OVCAR-5 ovarian was 18.7 µM; with SF-539 CNS, 13.4 µM; in the assay with T-47D breast, 22.3 µM; in the assay on U251 CNS it was 21 µM. Besides, the total growth inhibition concentration (TGI) with 786-0 renal is > 100 µM; with ACHN renal it was 58.5 µM; in the assay with HL-60(TB) leukemia it was 61.9 µM; in the assay with M14 melanoma, 32.1 µM; with NCI-H522 lung, 26.6 µM; in the assay on OVCAR-3 ovarian, 76.5 µM. In addition, the TGI with OVCAR-5 ovarian was 88.1 µM; in the assay on SF-539 CNS, 34 µM; with T-47D breast, > 100 µM; with U251 CNS, > 100 µM.
On to `N#CSc1cc(-c2nc3ccccc3o2)ccc1N`, for which the GI50 in the assay on 786-0 renal is 33.4 µM; in the assay with ACHN renal, 19.2 µM; with HL-60(TB) leukemia it was 0.195 µM; in the assay on M14 melanoma, 26.2 µM; in the assay with NCI-H522 lung it was > 40.9 µM; with OVCAR-3 ovarian, 17.9 µM. For the same compound, the GI50 in the assay with OVCAR-5 ovarian was 25.2 µM; in the assay with SF-539 CNS it was 22.4 µM; in the assay on T-47D breast, 7.5 µM; in the assay with U251 CNS, 11.8 µM. Besides, the TGI with 786-0 renal is 97.4 µM; in the assay on ACHN renal, 58.5 µM; in the assay on HL-60(TB) leukemia it was 0.552 µM; in the assay on M14 melanoma it was 80.4 µM; with NCI-H522 lung, > 64.6 µM; with OVCAR-3 ovarian, > 56.7 µM. Moreover, the TGI with OVCAR-5 ovarian was found to be 76.6 µM; in the assay with SF-539 CNS, 45.3 µM; with T-47D breast it was 90 µM; in the assay on U251 CNS, 57.3 µM.
On to `C=C(C)[C@@H]1CC[C@@H]2C(=CC[C@]3(C)C([C@H](C)CC/C=C(/C)C(=O)O)CC[C@@]23C)[C@@]1(C)CCC(=O)O` (stereo not given in full), for which the TGI in the assay with 786-0 renal is 43.9 µM; in the assay on ACHN renal, 36.7 µM; in the assay on HL-60(TB) leukemia it was 72.5 µM; in the assay on M14 melanoma it was > 100 µM; with NCI-H522 lung, 91.6 µM; in the assay on OVCAR-3 ovarian, 44.6 µM. Besides, the TGI is > 100 µM with OVCAR-5 ovarian, 89 µM in the assay with SF-539 CNS, > 100 µM in the assay on T-47D breast and 70 µM with U251 CNS.
On to `S=C1NC2=C(CCOc3c2ccc2ccccc32)C(c2ccc(Cl)cc2)N1` (stereo not given), for which the GI50 in the assay on 786-0 renal was 50.5 µM; with ACHN renal, 36.4 µM; with HL-60(TB) leukemia, 32.7 µM; in the assay on M14 melanoma, 54.3 µM; in the assay with NCI-H522 lung, 25.1 µM; in the assay on OVCAR-3 ovarian, 20.9 µM. Moreover, the GI50 is 73.9 µM in the assay on OVCAR-5 ovarian, 20.8 µM in the assay with SF-539 CNS, 3.36 µM in the assay with T-47D breast and 35.5 µM in the assay with U251 CNS. Further, the TGI with 786-0 renal is > 100 µM; in the assay on ACHN renal, > 100 µM; in the assay with HL-60(TB) leukemia it was > 100 µM; in the assay on M14 melanoma, > 100 µM; in the assay on NCI-H522 lung, > 100 µM; in the assay on OVCAR-3 ovarian, 70.6 µM. In addition, the TGI with OVCAR-5 ovarian was > 100 µM; in the assay with SF-539 CNS, 56.9 µM; in the assay on T-47D breast it was 17.2 µM; in the assay with U251 CNS, > 100 µM.
For `COc1ccc2c(c1)/C(=N/OC(C)=O)c1c-2c(Nc2ccc(/C(C)=N/OC(C)=O)cc2)nc2ccccc12`, the GI50 with 786-0 renal was > 100 µM; in the assay on ACHN renal it was 56.6 µM; with HL-60(TB) leukemia, 16.3 µM; with M14 melanoma it was 68.9 µM; in the assay on NCI-H522 lung it was 73.4 µM; in the assay with OVCAR-3 ovarian, 30.1 µM. The GI50 in the assay on OVCAR-5 ovarian is > 100 µM; in the assay with SF-539 CNS it was > 100 µM; with T-47D breast, 20.6 µM; in the assay with U251 CNS, 96.8 µM. Moreover, the concentration for total growth inhibition (TGI) is > 100 µM with 786-0 renal; > 100 µM in the assay with ACHN renal; > 100 µM in the assay on HL-60(TB) leukemia; > 100 µM with M14 melanoma; > 100 µM with NCI-H522 lung; 87.4 µM with OVCAR-3 ovarian. In addition, the total growth inhibition concentration (TGI) is > 100 µM in the assay on OVCAR-5 ovarian, > 100 µM in the assay on SF-539 CNS, 43 µM with T-47D breast and > 100 µM with U251 CNS.
For the compound `CCN(CC)Cc1cc(Nc2c3ccc(Cl)cc3nc3c(C)cccc23)ccc1O`, the GI50 was 1.37 µM with 786-0 renal; 1.04 µM with ACHN renal; 2.42 µM with HL-60(TB) leukemia; 1.69 µM in the assay on M14 melanoma; 0.585 µM with NCI-H522 lung; 1.97 µM in the assay with OVCAR-3 ovarian. The GI50 was 2.1 µM in the assay on OVCAR-5 ovarian, 1.73 µM in the assay with SF-539 CNS, 2.09 µM in the assay with T-47D breast and 1.46 µM in the assay with U251 CNS. The TGI in the assay on 786-0 renal stood at 2.67 µM; in the assay on ACHN renal it was 2.24 µM; in the assay on HL-60(TB) leukemia, 5.24 µM; with M14 melanoma, 3.11 µM; with NCI-H522 lung, 1.92 µM; with OVCAR-3 ovarian, 3.73 µM. Also, the TGI with OVCAR-5 ovarian was 4.86 µM; in the assay with SF-539 CNS, 3.12 µM; in the assay on T-47D breast, 4.08 µM; in the assay on U251 CNS, 2.84 µM.
Take `CCN(Cc1cccc(C)c1)c1ccc(CO)c(Cl)c1`: the GI50 in the assay on 786-0 renal was 10.8 µM; with ACHN renal, 14.6 µM; with HL-60(TB) leukemia, 14.1 µM; with M14 melanoma it was 14.3 µM; in the assay on NCI-H522 lung, 13.2 µM; in the assay with OVCAR-3 ovarian, 1.5 µM. Further, the GI50 in the assay with OVCAR-5 ovarian is 0.245 µM; in the assay on SF-539 CNS, 17.3 µM; in the assay with T-47D breast it was 0.294 µM; in the assay with U251 CNS it was 2.27 µM. Also, the total growth inhibition concentration (TGI) in the assay on 786-0 renal stood at 23.5 µM; with ACHN renal, 29.1 µM; in the assay with HL-60(TB) leukemia it was 41.1 µM; in the assay with M14 melanoma it was 29.8 µM; in the assay on NCI-H522 lung, 27.5 µM; in the assay on OVCAR-3 ovarian it was 8.77 µM. In addition, the TGI in the assay on OVCAR-5 ovarian came out at 1.04 µM; with SF-539 CNS, 32.4 µM; in the assay with T-47D breast, 1.81 µM; in the assay on U251 CNS, 16.8 µM.

Values taken from PubChem BioAssay (NCI).
